From US10376499B2, “Combination therapy for treatment of resistant bacterial infections” (priority 2014, dated 2019)
Structures can show the parent of a compound that is named as a salt. Where two headings read alike, the source gives them in different places.

Columns and labels:
Citrobacter spp = assay: MIC, recent Enterobacteriaceae clinical isolates: Citrobacter spp (Examples 7, 11); format: cell-based; settings: for MIC: read-out: MIC
A. baumannii [1] = assay: MIC, 20 diverse recent strains of A. baumannii (Example 10); format: cell-based, Acinetobacter baumannii; settings: N 20 A. baumannii strains
A. baumannii [2] = assay: Neutropenic mouse thigh and lung infection models; settings: neutropenic CD-1 mice, subcutaneous q3h, sulbactam+compound 1 at 4:1 ratio, 24 h, isolate containing AmpC, OXA-66, OXA-72, TEM-1, FIG. 4
Enterobacter cloacae = assay: MIC, recent Enterobacteriaceae clinical isolates: Enterobacter cloacae (Examples 7, 11); format: cell-based
Escherichia coli = assay: MIC, recent Enterobacteriaceae clinical isolates: Escherichia coli (Examples 7, 11); settings: Escherichia coli
Enterobacteriaceae = assay: organism not typed; format: cell-based
Klebsiella pneumoniae = assay: MIC, recent Enterobacteriaceae clinical isolates: Klebsiella pneumoniae (Examples 7, 11)

CC1=C[C@@H]2CN(C(=O)N2OS(=O)(=O)O)[C@@H]1C(N)=O [Compound 1, (2S,5R)-2-carbamoyl-3-methyl-7-oxo-1,6-diazabicyclo[3.2.1]oct-3-en-6-yl hydrogen sulfate]
0.125 to 32 µg/mL: MIC range (Enterobacteriaceae; Total Enterobacteriaceae, N 59)
recover the activity: efficacy (mean delta log CFU) (A. baumannii [2])
1 µg/mL: MIC (Enterobacter cloacae; Enterobacter cloacae ARC4489, AmpC+, read-out: MIC) | MIC50 (Klebsiella pneumoniae) | MIC (Klebsiella pneumoniae; Klebsiella pneumoniae ARC4420, SHV-11, SHV-12, DHA-1, OXA-1) | MIC (Klebsiella pneumoniae; Klebsiella pneumoniae ARC4483, SHV-11) | MIC (Klebsiella pneumoniae; Klebsiella pneumoniae ARC4484, SHV-168)
32 µg/mL: MIC (Citrobacter spp; Citrobacter freundii ARC3883, KPC-2) | MIC (Escherichia coli; Escherichia coli ARC4479, CMY-42+, OXA-1+, OXA-9+, TEM-1+)
64 µg/mL: MIC50 (A. baumannii [1])
16 µg/mL: MIC Min (A. baumannii [1])
2 µg/mL: MIC (Enterobacter cloacae; Enterobacter cloacae ARC4438, AmpC+, read-out: MIC) | MIC (Escherichia coli; Escherichia coli ARC4450, TEM-1+, OXA-1+, CMY-2+) | MIC (Escherichia coli; Escherichia coli ARC4472, CMY-2+, TEM-1+) | MIC (Escherichia coli; Escherichia coli ARC4477, CTX-M-15+, TEM-1+) | MIC (Klebsiella pneumoniae; Klebsiella pneumoniae ARC4414, SHV-11) | MIC (Klebsiella pneumoniae; Klebsiella pneumoniae ARC4434, SHV-11) | MIC (Klebsiella pneumoniae; Klebsiella pneumoniae ARC4446, SHV-11)
0.25 µg/mL: MIC (Citrobacter spp; Citrobacter braakii ARC3660, CTX-M-15) | MIC (Enterobacter cloacae; Enterobacter cloacae ARC4461, AmpC+, TEM-1, read-out: MIC) | MIC (Enterobacter cloacae; Enterobacter cloacae ARC4494, OXA-1+, DHA-1+, AmpC+, read-out: MIC) | MIC (Escherichia coli; Escherichia coli ARC4418, CTX-M-14+, CMY-2+) | MIC (Escherichia coli; Escherichia coli ARC4419, SHV-12+) | MIC (Escherichia coli; Escherichia coli ARC4421, CTX-M-55, TEM-1+, CMY-2+) | MIC (Escherichia coli; Escherichia coli ARC4429, TEM-1+, CMY-2+) | MIC (Escherichia coli; Escherichia coli ARC4432, CTX-M-14+, TEM-1+, CMY-2+) | MIC (Escherichia coli; Escherichia coli ARC4436, CTX-M-14+, TEM-1+) | MIC (Escherichia coli; Escherichia coli ARC4452, SHV-12+) | MIC (Escherichia coli; Escherichia coli ARC4455, SHV-12+) | MIC (Escherichia coli; Escherichia coli ARC4465, CMY-2+) | MIC (Klebsiella pneumoniae; Klebsiella pneumoniae ARC4427, SHV-1, OXA-1) | MIC (Klebsiella pneumoniae; Klebsiella pneumoniae ARC4435, SHV-157) | MIC (Klebsiella pneumoniae; Klebsiella pneumoniae ARC4488, SHV-11, CTX-M15, OXA-1, TEM-1)
8 µg/mL: MIC (Enterobacter cloacae; Enterobacter cloacae ARC4458, AmpC+, ACT-2[V312M]) | MIC (Escherichia coli; ATCC25922, Escherichia coli ARC4, none (ATCC 25922) CLSI control) | MIC (Klebsiella pneumoniae; Klebsiella pneumoniae ARC4468, SHV-1)
4 µg/mL: MIC (Citrobacter spp; Citrobacter freundii ARC3884, KPC-2) | MIC (Citrobacter spp; Citrobacter freundii ARC3885, AmpH, TEM-1, SHV-5, CMY-6, CMY-13) | MIC90 (Citrobacter spp; Citrobacter spp, N 7, read-out: MIC90) | MIC (Enterobacter cloacae; Enterobacter cloacae ARC4444, AmpC+, MIR-8[I175L]) | MIC90 (Enterobacter cloacae; N 10) | MIC90 (Escherichia coli) | MIC (Escherichia coli; Escherichia coli ARC4471, CMY-2+, OXA-1+, TEM-1+) | MIC (Escherichia coli; Escherichia coli ARC4487, SHV-5+, DHA-1+, TEM-1+, OXA-1+, CMY-2+) | MIC90 (Enterobacteriaceae) | MIC90 (Klebsiella pneumoniae) | MIC (Klebsiella pneumoniae; Klebsiella pneumoniae ARC4460, SHV-11, CTX-M15, OXA-1, NDM-1) | MIC (Klebsiella pneumoniae; Klebsiella pneumoniae ARC4467, SHV-33, TEM-1, OXA-1, DHA-1) | MIC (Klebsiella pneumoniae; Klebsiella pneumoniae ARC4476, SHV-11, KPC-2, OXA-9[W117*]) | MIC (Klebsiella pneumoniae; Klebsiella pneumoniae ARC4495, SHV-60, LAP-2)
0.25 to 4 µg/mL: MIC range (Citrobacter spp; Citrobacter spp, N 7)
0.5 µg/mL: MIC (Citrobacter spp; Citrobacter freundii ARC3522, AmpC, TEM-1, CMY65) | MIC (Citrobacter spp; Citrobacter koseri ARC2001, ESBL) | MIC (Citrobacter spp; Citrobacter koseri ARC2002, ESBL) | MIC50 (Citrobacter spp; Citrobacter spp, N 7, read-out: MIC50) | MIC (Enterobacter cloacae; Enterobacter cloacae ARC4439, AmpC+, LAP-2+, read-out: MIC) | MIC (Enterobacter cloacae; Enterobacter cloacae ARC4462, AmpC+, read-out: MIC) | MIC (Enterobacter cloacae; Enterobacter cloacae ARC4473, SHV-5+, AmpC+, DHA-1+, TEM-1+, read-out: MIC) | MIC (Enterobacter cloacae; Enterobacter cloacae ARC4492, AmpC+, read-out: MIC) | MIC50 (Enterobacter cloacae; N 10, read-out: MIC50) | MIC50 (Escherichia coli) | MIC (Escherichia coli; Escherichia coli ARC4416, CTX-M-14+, TEM-1+) | MIC (Escherichia coli; Escherichia coli ARC4449, CMY-2+, TEM-1+) | MIC (Escherichia coli; Escherichia coli ARC4478, CTX-M-15+, CMY-2+) | MIC (Escherichia coli; Escherichia coli ARC4485, CMY-2+, OXA-1+, CTX-M-15+) | MIC50 (Enterobacteriaceae) | MIC (Klebsiella pneumoniae; Klebsiella pneumoniae ARC4451, SHV-11, KPC-3) | MIC (Klebsiella pneumoniae; Klebsiella pneumoniae ARC4457, SHV-11, DHA-1) | MIC (Klebsiella pneumoniae; Klebsiella pneumoniae ARC4480, SHV-27) | MIC (Klebsiella pneumoniae; Klebsiella pneumoniae ARC4490, SHV-11, CTX-M15, KPC-2, OXA-1)
0.125 µg/mL: MIC (Escherichia coli)
0.25 to 8 µg/mL: MIC range (Enterobacter cloacae; N 10)
> 64 µg/mL: MIC90 (A. baumannii [1]) | MIC Max (A. baumannii [1])
